Data on 4 compounds can be found in paper PMC6468747 (Cancers, 2019).

Series [1] has as its system panel of 6 human TNBC cell lines. As to the kind of experiment: MTT cell growth assay, summary over the panel. Format: cell-based. The note with it: 7 days. Here is the method:
Figure 3 In vitro characterization, pharmacokinetics and toxicity profile of VNLG-152R and its two enantiomers. (A) HPLC chromatograms racemic VNLG-152R (left panel) and the resolved enantiomers VNLG-152E1 and VNLG-152E2 (right panel). The conditions of HPLC procedure are presented in Supplementary Materials. (B) Table summarizing GI50 values (µM) each cell line treated with VNLG-152R and its enantiomers. TNBC cell subtypes were treated with listed compound (0.1 nmol/L–100 µmol/L) for 7 days and the GI50 values for the anti-proliferative effects of the compounds were determined from dose response curves (by a nonlinear regression analysis using Graph Pad Prism). Data represents the results from six independent experiments for each cell line. (C) Plasma concentration versus time profile after intravenous (IV, 2 mg/kg each, top panel) or oral (PO, 20 mg/kg each, bottom panel) of VNLG-152R (red), VNLG-152E1 (purple) and VNLG-152E2 (blue) to female CD1 mice. Values represent the mean plasma concentrations from three mice per time point. (D) Table of the pharmacokinetic parameters of various compounds after IV and PO dosing. AUC = area under the curve, T1/2 = elimination half-life, Cmax = maximum plasma concentration, F (%) = oral bioavailability. (E) Effects of VNLG-152R, VNLG-152E1 and VNLG-152E2 on body weight and clinical observations at chronic dose termination of study. Three different doses, i.e., 10, 25, and 50 mg/kg/day (formulated in 40% β-cyclodextrin in saline) of each compound were administered daily by oral gavage for 14 days. Each group consisted of three mice. Loss in body weight, a clinical sign of toxicity was observed during the 14 days of dosing and the maximum tolerated dose (MTD) was estimated following established procedures. Changes in body weight were scored on a scale of 0–4 as follows as described under methods. […]
Background: Tetrazolium dyes change colour on reduction, which living cells bring about.

For series [2], the system named is Br-001 xenograft tumors. Kind of series: Patient-derived TNBC xenograft (PDX), PO, racemate vs E1. The format is in vivo, NSG mice. The note with it: 20 mg/kg PO. Here is the method: The second PDX tumor model experiment was conducted to assess the efficacy of VNLG-152R versus VNLG-152E1 following PO administration. When the tumor volumes had reached about 100 mm^3, the mice were randomly divided into three groups of five mice each. The control group received vehicle (PO) and the other two groups received VNLG-152R (20 mg/kg, PO, once daily), and VNLG-152E1 (20 mg/kg, PO, once daily) five days/week. These treatments continued for 15 days and the tumors were measured and processed as described above.

A short description of series [3]: 14-day oral toxicity / MTD study. The arrangement: species or system female athymic nude mice. Particulars: mouse, in vivo, po. As for the experimental part:
Three different doses, i.e., 10, 25, and 50 mg/kg/day (formulated in 40% β-cyclodextrin in saline) of each compound were administered daily by oral gavage for 14 days. Each group consisted of 3 mice. Their body weight kinetics (loss in body weight, a clinical sign of toxicity) was observed during the 14 days of dosing following established procedures. Changes in body weight were scored on a scale of 0–4 as follows: (1) Weight loss: (10 g = 4, 7–9 g = 3, 4–6 g = 2, 1–3 g = 1; severe = 3, moderate = 2, slight = 1, none = 0).

Series [4] has as its system MDA-MB-231 xenografts. Kind of series: MDA-MB-231 xenograft, racemate vs enantiomers, IP vs PO. Format: in vivo, nude mice. Particulars: 20 mg/kg per day PO, 36 days. As for the experimental part:
The second experiment designed to compare heal-to-head IP versus oral dosing (PO) and the efficacy of racemic VNLG-152 versus its two enantiomers was like that described above but consisted of eight groups. When the tumor volumes had reached about 100 mm^3, the mice were randomly divided into 8 groups of 5 mice each. The two control groups received vehicle (IP or OP) and the other six groups received VNLG-152R (20 mg/kg, IP or PO, once daily), VNLG-152E1 (20 mg/kg, IP or PO, once daily), and VNLG-152E2 (20 mg/kg, IP or PO, once daily) five days/week. These treatments continued for 36 days and the tumors were measured and processed as described above.

Series [5] in a line: Plasma pharmacokinetics after single IV and PO dosing. Format: in vivo, female CD1 mice. The note with it: mouse, in vivo. Here is the method:
5. In vivo Pharmacokinetics (PK) Determination: These studies were Performed by Charles River Laboratories (CRL), Discovery Services, 251 Ballardvale Street, Wilmington, MA 01887, USA.
The PK studies were performed according to the guidelines and approval of CRL Institutional Animal Care and Use Committee (IACUC) under IACUC approval no: P04172013.
A total of sixty‐four naïve female CD‐1 mice (including 6 spare animals) were received from Charles River Laboratories, Kingston, NY. Following an acclimation period, the animals were assigned to the study based on acceptable health as determined by a staff veterinarian. For dosing, animals were placed into six groups as detailed in the study design table below. All animals were fasted overnight prior to dosing and food was returned after the 4‐h post‐dose blood collections.
Each animal in Groups 1, 3 and 5 received a single administration of prepared test article by intravenous tail administration at a target dose level of 2 mg/kg and dose volume of 10 mL/kg. Each animal in Groups 2, 4 and 6 received a single administration of prepared test article by oral gavage at a target dose level of 20 mg/kg and at a dose volume of 10 mL/kg. Dosing was performed on August 13, 2015 as detailed in the study protocol and was completed without incident. Dose administration […]
Following dosing and at each sample collection time
Group Mices Test Compound Level Conc. Volume Dose Vehicle Route […]
Interim blood samples were collected in a leapfrog design from each animal by puncture of a submandibular vein and a terminal blood sample was collected from each animal by intracardiac puncture following euthanasia with CO2 as outlined in the sample collection table below.
All blood samples were transferred into tubes containing K2EDTA anticoagulant and placed on wet ice immediately after collection until centrifuged at 2200 × g for 10 min at […] to isolate plasma.
The resulting plasma was transferred to individual polypropylene tubes in a 96‐well plate format and immediately placed on dry ice until storage at nominally […] before transfer to the Test Facility’s bioanalysis group for concentration and HPLC analysis. Individual blood collection times are […]
Table S4. Sample Collections.
Collection Information Whole Blood for Plasma Whole Blood for Plasma
Subgroup A (n = 3) 5 min & 1 h post‐dose 8 h post‐dose
Subgroup B (n = 3) 15 min & 4 h post‐dose 12 h post‐dose
Subgroup C (n = 3) 30 min & 6 h post‐dose 24 h post‐dose
Subgroup D (n = 2) Not applicable 2 h post‐dose
Subgroup A (n = 3) 15 min & 2 h post‐dose 8 h post‐dose
Subgroup B (n = 3) 30 min & 4 h post‐dose 12 h post‐dose
Subgroup C (n = 3) 1 hr & 6 h post‐dose 24 h post‐dose
Collection conditions K2EDTA K2EDTA
Collection route Submandibular Intracardiac puncture
Volume/Time point 100 μL Maximum volume
The plasma samples for Groups 1‐6, Subgroups A‐C were analyzed for test article concentration using a Research Grade LC MS/MS Assay (RGA‐Level 1). The bioanalytical report, including plasma […]
Pharmacokinetic parameters were estimated from the plasma concentration‐time data using standard non‐compartmental methods and utilizing suitable analysis software (Watson 7.2 Bioanalytical LIMS, Thermo Electron Corp). Parameters were estimated using nominal sampling times relative to the start of each dose administration (within an acceptable tolerance limit).
Concentrations below the limit of quantification were excluded from the pharmacokinetic analysis.
The area under the plasma test item concentration versus time curve (AUC) was calculated using the linear‐log‐linear trapezoidal method. When practical, the terminal elimination phase of each concentration versus time curve was identified using at least the final three observed concentration values. The slope of the terminal elimination phase was determined using log linear regression on the unweighted concentration data.
Parameter Description of Parameter […]

Series [6] concerns the target T1, Mnk1 (Homo sapiens, UniProt Q9BUB5).
T1 construct: incubated with recombinant full length Mnk1 proteins or cell lysates overnight at 4 °C; GST
Kind of series: Streptavidin-agarose pull-down with biotinylated VNLG-152R. The format is binding. The note with it: 50 µg. Here is the method:
The streptavidin–agarose pull-down assay was performed as described previously. Biotin-VNLG-152R (50 µg) and biotin (50 µg; negative control) were preincubated with streptavidin agarose beads (Invitrogen, Waltham, MA, USA) overnight at 4 °C. The biotin-VNLG-152R-conjugated beads were washed three times with cold PBS and then incubated with recombinant full length Mnk1 proteins or cell lysates overnight at 4 °C. The bead-bound proteins were incubated and separated on a 10% SDS-PAGE and detected by western blot analysis for Mnk1.

In series [7] the test system is MDA-MB-231 cells. As to the kind of experiment: Multiplex Luminex supernatant cytokine analysis. The format is cell-based, human. The note with it: 72 h, cell supernatants. Here is the method: Supernatants from the MDA-MB-231 (TNBC) cells in Fetal Bovine Serum (FBS) containing media were treated with various concentrations of VNLG-12R for 72 h, were collected, and various cytokines and growth factor concentrations (CLCX-1, IL-6, IL8 and TNF-α) were determined by Luminex multiplex assay kit (Millipore, Billerica, MA, USA) according to the manufacturer’s instructions. The expressions of secreted cytokines were read on Luminex 100 reader. The data was then analyzed using the BioPlex Software (BioRad, Hercules, CA, USA). The Luminex multiplex assays were conducted at the University of Maryland School of Medicine Cytokine Core Laboratory (Baltimore, MD, USA).

Series [8] concerns MDA-MB-468 cells. Kind of series: Head-to-head MTT antiproliferative assay, 6-day exposure. Format: cell-based, human. The note with it: Homo sapiens, MDA-MB-468, 144 h. As for the experimental part: (§1) Figure 2 VNLG-152R inhibits mTORC1 signaling and the production of pro-inflammatory cytokines. (A) MDA-MB-231 and MDA-MB-468 cells were treated with the indicated concentrations of VNLG-152R for 72 h. Cell lysates were analyzed by immunoblotting with the indicated antibodies. (B) Head-to-head antiproliferative effects of VNLG-152R and eFT508 on MDA-MB-231 and MDA-MB-468 cells. The dose-response curves were generated from MTT assays after 6-day exposure to different concentrations of the compounds. Each point is a mean of replicates from three independent experiments. (C–E) MDA-MB-231 cell were treated with the indicated concentration of VNLG-152R or eFT508 for 72 h. Cell supernatants were collected, and the indicated cytokines were quantitated by Multiplex Luminex assay.
(§2) Cell growth inhibition assay was performed as described previously. For cell growth experiment, cells were treated with the VNLG-152R, VNLG-152E1 or VNLG-15E2 for 7 days. MTT assay was performed at the end of the experiment. Results represent the mean ± standard deviation of three independent experiments.

In series [9] the test system is MDA-MB-231 cells. The series is described as above. Format: cell-based, human. The note with it: Homo sapiens, MDA-MB-231, 144 h. Here is the method: as §1, §2
The mark [10] stands for this setting: mean over 6 TNBC cell lines, read-out: average GI50.
[11] abbreviates: range over 6 TNBC cell lines, read-out: range of GI50.

Read-outs that look alike come from different tables or passages of the source.

T1 sequence (Q9BUB5 whole entry): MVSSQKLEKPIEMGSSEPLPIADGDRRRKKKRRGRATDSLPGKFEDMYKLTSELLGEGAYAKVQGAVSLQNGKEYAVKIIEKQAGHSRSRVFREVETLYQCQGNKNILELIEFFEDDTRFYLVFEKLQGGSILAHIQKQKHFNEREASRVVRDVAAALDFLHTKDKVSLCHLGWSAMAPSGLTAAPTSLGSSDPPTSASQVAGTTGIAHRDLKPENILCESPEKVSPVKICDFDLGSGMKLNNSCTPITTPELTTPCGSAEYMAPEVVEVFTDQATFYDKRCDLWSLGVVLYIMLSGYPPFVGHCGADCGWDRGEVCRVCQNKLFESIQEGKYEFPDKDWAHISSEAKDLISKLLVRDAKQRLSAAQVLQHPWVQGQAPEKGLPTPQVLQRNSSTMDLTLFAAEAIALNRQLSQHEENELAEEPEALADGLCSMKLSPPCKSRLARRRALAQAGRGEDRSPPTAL

As a reminder, the GI50 is the concentration at which growth is held to half of that of the control. A word on the TGI: it is the reduction of tumour growth relative to the control group. A low value points to little slowing of growth. In general, AUC(0-inf) refers to the area under the concentration-time curve extrapolated to infinity. Read a high AUC(0-inf) as high exposure. As usually defined, the Cmax is the maximum level reached in the sampled fluid or tissue. Regarding `CC1=C(/C=C/C(C)=C/C=C/C(C)=C/C(=O)Nc2ccc(F)cc2)C(C)(C)CCC1n1ccnc1` (single isomer, unassigned) [VNLG-152E1], the GI50 was 2.3 µM in [1] (setting [10]) and 0.98 to 4.79 µM in [1] (setting [11]). For the same compound, the “changes in body weights” value in series [2] is listed as “No changes in body weights were observed”. The TGI in series [2] (5 days per week, 15 days) is 79%; in [4] it was 78%. Moreover, the “maximum tolerated dose (MTD)” value in series [3] is reported as over 50 mg/kg. Besides, in series [5], the “F (%) oral bioavailability” value was 161.9%. The “AUC(0-inf)” value in series [5] (iv, 2 mg/kg) came out at 2.1 µg·h/mL; in [5] (po, 20 mg/kg), 34 µg·h/mL. For the same compound, the T1/2 is 1.78 h in [5] (iv, 2 mg/kg) and 4.49 h in series [5] (po, 20 mg/kg). In series [5] (po, 20 mg/kg), this compound had a Cmax of 4.88 µg/mL.

For the compound `CC1=C(/C=C/C(C)=C/C=C/C(C)=C/C(=O)Nc2ccc(F)cc2)C(C)(C)CCC1n1ccnc1` (single isomer, unassigned) [VNLG-152E2], in [1] (setting [10]), the GI50 was determined as 0.39 µM. For the same compound, the GI50 in series [1] (setting [11]) is 0.1 to 1.17 µM. Further, the “maximum tolerated dose (MTD)” value in [3] is over 50 mg/kg. For the same compound, the “F (%) oral bioavailability” value in series [5] was 72.8%. In series [5] (iv, 2 mg/kg), the “AUC(0-inf)” value stood at 1.84 µg·h/mL and the T1/2 amounted to 1.10 h. In series [5] (po, 20 mg/kg), the total exposure AUC(0-inf) was 13.4 µg·h/mL, the peak concentration (Cmax) was 3.59 µg/mL and the T1/2 was 4.02 h.

`CC1=C(/C=C/C(C)=C/C=C/C(C)=C/C(=O)N(CCOC(=O)CCCC[C@@H]2SC[C@@H]3NC(=O)N[C@@H]32)c2ccc(F)cc2)C(C)(C)CCC1n1ccnc1` (stereo partly drawn) [VNLG-152R-biotin]: the “Mnk1 captured in streptavidin pull-down” value in series [6] (MDA-MB-231 cells) was “direct binding of Mnk1 to VNLG-152R-biotin in MDA-MB-231 cells”; in series [6] (recombinant Mnk1 protein), “substantial amounts of Mnk1 was found only in the VNLG-152R-biotin-treated sample”.

Regarding `Cc1cc(Nc2cc(N)ncn2)c(=O)n2c1C(=O)NC21CCCCC1.Cl` [eFT508, 6′-[(6-aminopyrimidin-4-yl)amino]-8′-methyl-2′Hspiro[cyclohexane-1,3′-imidazo-[1,5-a]pyridine]-1′,5′-dione hydrochloride (1:1), reference compound], in series [7], the “secreted IL-6 and IL-8, TNFα and chemokine CXCL1” value is given as “dose-dependent reduction”; the “secretion of CXCL1” value is listed as “seem to stimulate secretion of CXCL1”. In addition, growth in series [8] was halved (GI50) at 52.5 µM. In addition, in [9], the GI50 was determined as 7.07 µM.
